Assay results from paper PMC9379584 (iScience, 2022).
Several values for one entry are separate records, joined by “and”; a condition that tells them apart may be missing. Equal values may be shown once. Entries after “also recorded” stand apart in the source; their conditions may differ. Read-outs that look alike come from different tables or passages of the source.

Legend:
[1] = system: human islets; assay: Glucagon secretion from human islets; format: cell-based; conditions: 25 mM glucose, 1 h
[2] = system: INS-1E cells; assay: HTRF cAMP assay in INS-1E cells; format: cell-based, rat; conditions: for Emax, inhibition of cAMP production: normalized to DA's efficacy in parental INS-1E
[3] = target: T1, D2R (Homo sapiens, UniProt P14416); assay: cell-based; conditions: for EC50: nanoBRET; for Emax: HEK-293T
Target sequence in this assay (P14416 whole entry): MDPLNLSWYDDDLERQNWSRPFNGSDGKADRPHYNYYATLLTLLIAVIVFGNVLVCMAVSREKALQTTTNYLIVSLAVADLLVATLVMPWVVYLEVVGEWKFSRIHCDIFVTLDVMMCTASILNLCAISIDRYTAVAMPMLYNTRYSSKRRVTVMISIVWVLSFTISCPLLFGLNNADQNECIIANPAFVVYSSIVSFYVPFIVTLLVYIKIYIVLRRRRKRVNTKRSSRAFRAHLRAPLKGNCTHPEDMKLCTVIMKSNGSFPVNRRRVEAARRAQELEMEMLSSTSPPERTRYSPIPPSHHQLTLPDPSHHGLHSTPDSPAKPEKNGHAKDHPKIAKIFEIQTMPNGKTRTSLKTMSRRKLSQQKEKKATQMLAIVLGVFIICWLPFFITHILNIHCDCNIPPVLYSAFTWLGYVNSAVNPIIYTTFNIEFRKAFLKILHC

[4] = system: mouse islets; assay: Glucagon secretion from mouse islets; format: cell-based; conditions: 25 mM glucose, 1 h
[5] = target: T1, D2R; assay: cell-based
Target sequence in this assay (P14416 whole entry): as above
Target sequence in this assay (P32121 whole entry partner): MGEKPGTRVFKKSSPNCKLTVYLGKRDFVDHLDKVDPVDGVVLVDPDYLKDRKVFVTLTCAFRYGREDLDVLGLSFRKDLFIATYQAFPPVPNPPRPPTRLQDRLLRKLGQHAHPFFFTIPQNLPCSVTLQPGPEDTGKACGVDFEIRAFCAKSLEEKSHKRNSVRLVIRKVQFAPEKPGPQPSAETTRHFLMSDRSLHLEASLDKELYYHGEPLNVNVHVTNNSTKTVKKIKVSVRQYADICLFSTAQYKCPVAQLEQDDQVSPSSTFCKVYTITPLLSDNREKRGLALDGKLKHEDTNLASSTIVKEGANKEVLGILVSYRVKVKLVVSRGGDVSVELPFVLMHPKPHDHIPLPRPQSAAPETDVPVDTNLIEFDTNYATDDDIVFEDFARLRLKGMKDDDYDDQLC

[6] = system: α2A-AR; assay: α2A-AR internalization; format: cell-based; conditions: data not shown
[7] = target: T2, α2A-AR (Rattus norvegicus, UniProt P22909); format: cell-based; conditions: nanoBRET
T2 sequence (P22909 1-465): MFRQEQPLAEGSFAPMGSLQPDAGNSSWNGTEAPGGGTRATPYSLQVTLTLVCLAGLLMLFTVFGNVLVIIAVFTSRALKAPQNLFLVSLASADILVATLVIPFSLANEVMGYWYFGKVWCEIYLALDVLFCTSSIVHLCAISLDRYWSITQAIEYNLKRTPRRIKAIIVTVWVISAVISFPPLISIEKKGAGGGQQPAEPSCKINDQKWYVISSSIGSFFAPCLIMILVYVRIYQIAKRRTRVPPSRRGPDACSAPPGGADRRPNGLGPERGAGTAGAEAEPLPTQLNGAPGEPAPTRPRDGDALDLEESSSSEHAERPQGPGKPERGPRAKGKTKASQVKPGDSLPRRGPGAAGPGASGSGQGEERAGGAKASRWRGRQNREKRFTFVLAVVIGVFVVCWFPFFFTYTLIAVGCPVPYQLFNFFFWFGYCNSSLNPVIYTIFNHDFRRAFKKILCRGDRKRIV

[8] = system: α2A-AR KO INS-1E-derived cell line; assay: GSIS in α2A-AR knockout INS-1E-derived cell line; format: cell-based, rat
[9] = target: T2, α2A-AR; format: cell-based; conditions: nanoBRET; remark: listed apart in the source
[10] = target: T1, D2R; conditions: nanoBRET
Target sequence in this assay (P14416 whole entry): as the sequence (P14416 whole entry) above

[11] = target: T2, α2A-AR; assay: cell-based; conditions: HEK-293T
[12] = system: mouse pancreatic islets; assay: Glucose-stimulated insulin secretion; format: cell-based; conditions: for IC50: Mus musculus, Pancreatic islet, 1.5 h
[13] = target: T1, D2R; assay: Radioligand competition binding, [3H]-N-methylspiperone, HEK-293 membranes
Target sequence in this assay (P14416 whole entry): as above

[14] = system: α2A-AR KO INS-1E-derived cell line; assay: HTRF cAMP assay in α2A-AR KO INS-1E-derived cells; format: cell-based, rat
[15] = system: β1-AR; conditions: ref Millan et al., 2002; cited from earlier work
[16] = target: T1, D2R
Target sequence in this assay (P14416 whole entry): as above

[17] = system: human islets; assay: Insulin secretion from human islets; format: cell-based; conditions: 10 pM and 100 pM, versus vehicle
[18] = system: INS-1E cells; assay: Glucose-stimulated insulin secretion; format: cell-based, rat
[19] = target: T1, D2R; conditions: cited from earlier work
Target sequence in this assay (P14416 whole entry): as above
Target sequence in this assay (P32121 whole entry partner): as the sequence (P32121 whole entry partner) above

[20] = EC50, Gαi2 recruitment to D2R, Gαi2
[21] = EC50, Gαi3 recruitment to D2R, Gαi3
[22] = EC50, GαoA recruitment to D2R, GαoA
[23] = percentage of recruitment relative to DA

## CC(C)C[C@H]1C(=O)N2CCC[C@H]2[C@]2(O)O[C@](NC(=O)[C@@H]3C=C4c5cccc6[nH]c(Br)c(c56)C[C@H]4N(C)C3)(C(C)C)C(=O)N12 [Bromocriptine]
[1]; 10 pM
  decrease in secreted glucagon: 30.8%
[1]; 100 pM
  decrease in secreted glucagon: 36.7%
[2]
  Emax, inhibition of cAMP production: 35.10 [33.09–38.47] % DA
[2]; listed as bromocriptine
  Emax, inhibition of cAMP production: 35.1 % DA
[2]; read-out: IC50, inhibition of cAMP production, forskolin 5 μM, 1 h
  IC50: 10.3 nM
[3]; EC50, Gαi1 recruitment to D2R, Gαi1
  EC50: 104 nM
[3]; [20]
  EC50: 21.6 nM
[3]; [21]
  EC50: 84.3 nM
[3]; [22]
  EC50: 0.0767 nM and 0.08 nM
[3]; EC50, Gαz recruitment to D2R, Gαz
  EC50: 4.3 nM
[3]; read-out: Emax, Gαi2 recruitment to D2R, percentage of recruitment relative to DA
  Emax: 89.3%
[3]; read-out: Emax, GαoA recruitment to D2R, percentage of recruitment relative to DA
  Emax: 109%
[3]; read-out: Emax, GαoB recruitment to D2R, percentage of recruitment relative to DA
  Emax: 96.1%
[3]; read-out: Emax, Gαz recruitment to D2R, percentage of recruitment relative to DA
  Emax: 66.5%
[3]; pEC50, GαoA recruitment to D2R, GαoA
  EC50: 0.0759 nM
[3]; pEC50, GαoB recruitment to D2R, GαoB
  EC50: 0.269 nM
[4]; 10 pM
  decrease in secreted glucagon: 26.7%
[4]; 100 pM
  decrease in secreted glucagon: 29.7%
[5]
  EC50: 286 nM
[5]; read-out: Emax, β-arrestin2 recruitment to D2R
  Emax: 60.9%
[6]
  internalization of α2A-AR following stimulation: no detectable internalization
[7]
  β-arrestin1 recruitment to α2A-AR: negligible recruitment
[8]; read-out: IC50, inhibition of GSIS, α2A-AR KO INS-1E-derived cells
  IC50: 6.67 nM
[8]; α2A-AR KO
  reduction of efficacy of GSIS inhibition versus parental INS-1E cells: 80.6%
[9]
  β-arrestin2 recruitment to α2A-AR: does not result in measurable recruitment; also recorded: Neither bromocriptine nor DA stimulation of α2A-AR caused significant β-arrestin2 receptor recruitment
[10]
  β-arrestin1 recruitment to D2R: negligible recruitment
[11]; read-out: Emax, Gαi1 recruitment to α2A-AR
  Emax: 15.4%
[11]; read-out: Emax, Gαi2 recruitment to α2A-AR
  Emax: 43.8%
[11]; read-out: Emax, Gαi3 recruitment to α2A-AR
  Emax: 12.7%
[11]; read-out: Emax, GαoA recruitment to α2A-AR
  Emax: 43%
[11]; read-out: Emax, GαoB recruitment to α2A-AR
  Emax: 40.3%
[11]; read-out: Emax, Gαz recruitment to α2A-AR
  Emax: 21.2%
[12]; read-out: IC50, inhibition of GSIS
  IC50: 15.8 nM
[12]; read-out: pIC50, inhibition of GSIS (converted)
  IC50: 15.8 nM
[12]; mouse islets, picomolar concentrations
  effect on insulin secretion: insufficient to modify insulin secretion
[13]
  Ki: 43.2 nM
[14]; KO versus unmodified cells
  loss of potency in decreasing cAMP by α2-AR KO: ~120 fold
[14]; read-out: IC50, inhibition of cAMP production, α2A-AR KO
  IC50: 1200 nM
[14]; α2A-AR KO, normalized to DA's efficacy in parental INS-1E
  Emax, inhibition of cAMP production: 56.28 [5.32–107.26] % DA
[15]
  affinity for β1-AR, lower compared with D2R: ~120 fold
[16]; EC50 ratio versus DA
  higher potency than DA, Gαi1 recruitment to D2R: 4.5 fold
[16]; EC50 ratio versus NE
  higher potency than NE, Gαi1 recruitment to D2R: 47.2 fold
[16]; [23]
  Emax, Gαi1 recruitment to D2R: 60.03 [46.83–73.23] %
  Emax, GαoA recruitment to D2R: 109.13 [71.26–147.01] %
  Emax, GαoB recruitment to D2R: 96.05 [65.07–127.03] %
  Emax, Gαz recruitment to D2R: 66.51 [20.68–112.34] %
[17]
  effect on insulin secretion: not significantly altered; also recorded: did not significantly alter
[18]; co-treatment with sulpiride (100 nM)
  decrease of efficacy at reducing GSIS versus bromocriptine alone: 66.7%
[18]; co-treatment with yohimbine (100 nM)
  reduction of efficacy of GSIS inhibition versus bromocriptine alone: 66.5%
[18]; read-out: IC50, inhibition of GSIS, INS-1E, 20 mM glucose, 90 min
  IC50: 14 nM

## NC[C@H](O)c1ccc(O)c(O)c1 [NE, norepinephrine]
[3]; [20]
  EC50: 25.3 nM
[3]; [21]
  EC50: 32600 nM
[3]; [22]
  EC50: 3350 nM
[3]; EC50, GαoB recruitment to D2R, GαoB
  EC50: 139 nM
[7]
  β-arrestin1 recruitment to α2A-AR: negligible recruitment
[10]
  β-arrestin1 recruitment to D2R: negligible recruitment
[19]
  pEC50, β-arrestin2 recruitment to D2R: 4.78 (16745.32) [3.62–5.93]
